These results are taken from patent US11447533B2, “Antimicrobial and anticancer peptides and conjugates and compositions, methods, articles and kits relating thereto” (George Mason Research Foundation, Inc., priority 2018, dated 2022).

In data set [1] the test system is primary lung epithelium cells. Put plainly: Cytotoxicity (Alamar blue). The data set is classed as cell-based, human. To be noted: ~16 hours (overnight), reduced serum conditions. As to the method: FIGS. 11A-11B are graphs showing cytotoxicity against primary lung epithelium cells in serum-free condition. Cells were seeded in complete growth medium (Minimal essential medium supplemented with 10% fetal bovine serum) at near-confluence into a 96-well plate and allowed to settle for 24-hours. Media was then replaced to OptiMEM I reduced serum medium containing peptide or vehicle alone (DBPS) and cells were incubated overnight (16 hours). A resazurin based dye (Alamar blue) was added directly to media and conversion of resazurin to resorufin was evaluated following two hours. % Survival represents the proportion of viable cells in peptide treated cells relative to cells treated with vehicle alone. […] Each peptide was tested in triplicate.
FIG. 12 is a graph showing comparison of toxicities against Lung Primary Epithelial cells and Lung Cancerous Epithelial Cells, derived from H358 cell-line. […] Each peptide was tested in triplicate.
Cytotoxicity. Cells were seeded in complete growth medium (Minimal Essential Medium, MEMα, supplemented with 10% Fetal Bovine Serum) into a culture-treated 96-well plate at a density of 25000 cells per well. After 24 hours, culture media was aspirated and replaced with media containing the selected peptide. No-serum experiments were conducted in Opti-MEM I reduced serum media (ThermoFisher, 31985062) and 10% serum experiments were performed in complete growth medium. In all cases, DBPS was used as a vehicle only control and buffer to serially dilute the peptides. After exposure to the peptides or vehicle-alone for the defined period, Alamar blue dye (resazurin) was added directly to the media and allowed to incubate for two hours. Following incubation, A570/A600 measurements were made to calculate reduction of resazurin dye to resorufin. A ratio of reduction in treated versus untreated cells was calculated in order to determine overall cell viability. The human cells were always maintained in a 37° C. incubator under 5% CO2.
(In general: Alamar Blue is a resazurin reagent that responds to reducing activity.)

The nature of data set [2]: Endotoxin binding: competitive displacement of BODIPY TR-Cadaverine from LTA. Also on record: species or system Staphylococcus aureus. The following applies: 5 μM peptide, 10 μM BC, 10 μg/mL LTA, 10 mM Na-PO4. As to the method:
(§1) FIGS. 2A-2B are graphs showing endotoxin binding. The figures depict the competitive displacement of BC from LPS/LTA by the peptides. 5 μM of each peptide was incubated with 10 μM BC and 10 μg/mL LPS from E. coli (0111:B4) or LTA from S. aureus. Fluorescence intensity was measured at excitation=580 nm and emission=620 nm. 10 μM BC without endotoxin was used as 100% displacement while 10 μM BC with 10 μg/mL LPS/LTA without any peptide as 0% displacement and the % displacement of BC by each peptide was calculated accordingly. […] had been used as a positive control. The horizontal dotted line coincides with the % displacement of BC by ATRA1 on the y-axis.
(§2) FIGS. 6A-6B are graphs showing endotoxin (LPS (FIG. 6A) and LTA (FIG. 6B)) binding. Competitive displacement of BC from LPS/LTA. In each case, 5 μM peptide was incubated with 10 μM BC and 10 μg/mL LPS from E. coli (0111:B4) or LTA from S. aureus. Fluorescence intensity was measured using excitation=580 nm and emission=620 nm. As a positive control 10 μM BC without endotoxin was used as a reference for 100% displacement while 10 μM BC with 10 μg/mL LPS/LTA without any peptide as a negative control and a reference for 0% displacement. These controls were used to calculate % BC displacement for each peptide.
(§3) Endotoxin Binding. The binding of endotoxin (LPS/LTA) was evaluated using a fluorogenic conjugateBODIPY TR-Cadaverine (BC). BC binds endotoxin loses its fluorescence. The peptide competitively displaces BC from endotoxin and the fluorescence is reestablished. Competitive inhibition of endotoxin-BC binding was utilized due to presence of peptides already in complexion with endotoxin. 25 μL of 20 μM of peptides in 10 mM Na—PO4 buffer were incubated with 25 μL of LPS (40 μg/mL) or LTA (40 μg/mL) for 15 min and then added with 50 μL of BC (20 uM). Peptides bind to LPS or LTA and competitively prevents BC bind to the endotoxin. BC loses its fluorescence on binding to endotoxin. The fluorescence intensity of the unbound BC was measured at excitation=580 nm and emission=620 nm.
(§4) BC contains two functional moieties: BODIPY (boron-dipyrromethene) and cadaverine connected via a carboxamide. BODIPY is the fluorophore of BC and fluoresces in the free state in solution but loses fluorescence when bound to LPS/LTA. The competitive displacement of BC from LPS/LTA by AMPs and thus regeneration of the fluorescence has frequently been used to estimate the binding strength of AMPs with LPS/LTA. In the present studies, 5 μM of each peptide was used to displace BC from LPS/LTA. […] Such observation contradicts the initial assumption that substitution of Lys with arginine would result in increased efficiency of LPS binding. However, with sequential substitutions of Lys with arginine, starting with ATRA1-AR, peptide variants show increased LPS binding with each additional arginine substitution. In terms of LPS binding: ATRA1-AR<ATRA1-AR2<ATRA1-AR3. In ATRA1-R3, the lysine residues at 9th, 5th and 1st positions of ATRA1 were substituted with arginine. In ATRA1-R6 all of the lysine residues were replaced with arginine.

Data set [3] relates to E. coli ATCC 25922. As to the kind of experiment: Antimicrobial efficacy (resazurin virtual colony count). The class given is cell-based, Escherichia coli. The following applies: PBS (high / physiologically relevant ionic strength), pH 7.4. As to the method:
Antimicrobial Studies. The phosphate buffers used for antimicrobial assays were supplemented with non-nitrogenous energy source, 0.1% (w/v) glucose. To conduct antimicrobial assays, bacterial strains were first suspended in respective buffers. E. coli (ATCC 25922) and B. cereus (ATCC 11778) were grown in MHB II up to OD600 nm˜1 and stored as frozen stock in 20% glycerol at −80° C. Occasionally they were thawed and enumerated by serial dilution and spreading on MHB II agar plates. The concentrations of the frozen stocks of E. coli and B. cereus strains were 1.0-1.1*10^8 CFU/mL with OD600 nm˜0.8. In case of other bacterial strains, they were grown on the days of experiment up to OD600 nm˜1-1.5 and then adjusted to OD600 nm˜0.8. The growth media of the drug-resistant bacterial strains were supplemented with few of the respective antibiotics against which they are resistant. 200 μL of the 0.8 OD600 nm culture were added to 10 mL of the respective buffer to obtain a suspension which was used to incubate with equal volumes of peptide solution in the same buffer.
Antimicrobial assays in different phosphate buffers and serum were conducted by adapting, with necessary modifications a fast high-throughput method based on Virtual Colony Count technique and later modified by incorporating the use of resazurin. At first serial dilution of a microbial strain in respective buffer was poured in the wells of 96 well polypropylene microplate and was then added with same volume of 2× MHB II supplemented with 80 μg/mL resazurin and incubated at 35° C. in a Gemini EM Microplate Reader (Molecular Devices) overnight with intermittent shaking. As the microbe grows it reduces non-fluorescent resazurin to fluorescent resorufin and the fluorescent intensity of each well were measured (excitation=570 nm, emission=590 nm) each 5 min for 15 hours. The time (t, min) to reach a certain fluorescence (RFU=20000 with respect to the starting fluorescence) was correlated with the initial bacterial concentration (in CFU/mL) in the particular well to obtain a calibration plot of the form: Log([Bacteria],CFU/mL)=b+m*t Equation 4: […]
To obtain antimicrobial efficacy of the peptides, 50 μL of serially diluted peptide in a buffer was incubated with 50 μL microbial suspension in the same buffer for 3 hours in black polypropylene 96 well plate. After incubation the wells were added with 100 μL of 2× MHB II supplemented with 80 μg/mL resazurin and then incubated with continuous fluorescence reading for overnight time period as described earlier. The surviving microbial population (CFU/mL) in each well were calculated by first finding the time to reach a fluorescence of RFU=20000 and the correlation (4) for the specific microbial strain and buffer. % Survival represents the proportion of viable cells in peptide treated cells relative to cells treated with the respective buffer alone. Equation 5: […]
Finally, the antimicrobial effectiveness of each peptide against the particular microbial strain in the specific buffer was determined by plotting % microbial survival as a function of the log of the concentration of the peptide and fitting the resulting data to a variable-slope sigmoidal regression model (equation 6). In this equation, log(EC50) represents the log of the concentration of the peptide required to kill half of the microbial population, where Smin and Smax correspond to the minimal and maximal microbial survival values (respectively), and H, Hill slope, is the parameter defining the steepness of the transition slopes of sigmoidal survival curves. % Microbial survival=Smin+(Smax−Smin)/(1+10^log(EC^50^)-log[peptide]*H) Equation 6: […]
The antimicrobial efficacies of the peptides were first tested against the model Gram-negative bacteria, E. coli ATCC 25922, in different phosphate buffers having varied ionic strengths and compositions. The phosphate buffers that were used included 10 mM sodium phosphate (calculated ionic strength˜25 mM), PBS and DPBS. […]

The nature of data set [4]: Endotoxin binding: competitive displacement of BODIPY TR-Cadaverine from LPS. Also on record: species or system Escherichia coli. The following applies: 5 μM peptide, 10 μM BC, 10 μg/mL LPS, low ionic-strength 10 mM Na-PO4. As to the method: as §1, §2, §3, §4

In the case of `CC[C@H](C)[C@H](NC(=O)CN)C(=O)NCC(=O)N[C@@H](C)C(=O)N[C@H](C(=O)N[C@@H](CC(C)C)C(=O)N[C@@H](CCCCN)C(=O)N[C@H](C(=O)N[C@@H](CC(C)C)C(=O)N[C@H](C(=O)N[C@H](C(=O)NCC(=O)N[C@@H](CC(C)C)C(=O)N1CCC[C@H]1C(=O)N[C@@H](C)C(=O)N[C@@H](CC(C)C)C(=O)N[C@H](C(=O)N[C@@H](CO)C(=O)N[C@@H](Cc1c[nH]c2ccccc12)C(=O)N[C@H](C(=O)N[C@@H](CCCCN)C(=O)N[C@@H](CCCNC(=N)N)C(=O)N[C@@H](CCCCN)C(=O)N[C@@H](CCCNC(=N)N)C(=O)N[C@@H](CCC(N)=O)C(=O)N[C@@H](CCC(N)=O)C(N)=O)[C@@H](C)CC)[C@@H](C)CC)[C@@H](C)O)[C@@H](C)O)C(C)C)C(C)C` [melittin], the “cytotoxicity, in words” value in data set [1] is listed as “killed the cells at the highest degree”.
With KKAKKFFKKLK (SEQ ID NO: 5) [ATRA1-AK], in data set [2], the “LTA binding (BC displacement), in words” value was “highest LTA binding”. Moreover, the “antimicrobial efficacy, in words” value in data set [3] is given as “lost activity in PBS”. Also, the “LPS binding (BC displacement), in words” value in data set [4] is recorded as “highest LPS binding among all the peptides”.
